Measurements taken from ChEMBL document CHEMBL5727136, “Inhibitors of RPN11” (2018).

Legend:
[1] = (§1) Biochemical Assay: In brief, this Rpn11 bioassay employs a fluorescent polarization readout based on the ability of the 26S proteasome to cleave the protein substrate including four tandem ubiquitin proteins fused to a peptide having a unique cysteine labeled with a fluorophore. Cleavage of this substrate by Rpn11 at the junction between the fourth ubiquitin and the peptide, releases the low molecular weight fluorescent peptide. Accordingly, inhibition of fluorescence correlates with inhibition of Rpn11. Inhibition is reported as the half maximal inhibitory concentration (IC50) for the candidate compound.The catalytic JAB1/MPN/Mov34 metalloenzyme (JAMM) motif of Rpn11 is found in 7 different human proteins including the Csn5 subunit of the COP9 signalosome, AMSH, AMSH-LP, the BRCC36 subunit of BRISC, MPND, and MYSM1. All of these enzymes cleave the isopeptide linkage that joins ubiquitin (or the ubiquitin-like protein Nedd8 in the case of Csn5) to a second molecule of ubiquitin or to a substrate. The conserved JAMM domain has the consensus sequence EXnHS/THX7SXXD, in which the histidine (His) and aspartic acid (Asp) residues bind the Zn2+ ion and the fourth coordination site is occupied by a water molecule that is engaged in hydrogen bonding with a conserved glutamic acid (Glu). The Zn2+ acts as a Lewis acid and increases the nucleophilic character of the bound water enough to allow hydrolytic cleavage of the isopeptide bond.
[2] = as §1; remark: listed apart in the source
[3] = as §1; remark: listed apart in the source

| Structure (SMILES) | IC50 [1] [µM] | IC50 [2] [µM] | IC50 [3] [µM] |
| --- | --- | --- | --- |
| CNC(=O)c1cnc2c(S)cccc2c1 | 68 | 4.8 |  |
| O=C(NCCc1nccs1)c1cnc2c(S)cccc2c1 | 30 |  |  |
| O=C(NCCc1ccco1)c1cnc2c(S)cccc2c1 | 6.9 | 1.7 |  |
| O=C(NCCN1CCOCC1)c1cnc2c(S)cccc2c1 |  | 25.4 | 6.4 |
| O=C(NCc1nccs1)c1cnc2c(S)cccc2c1 |  | 7.8 |  |
| O=C(NCc1ccc2c(c1)OCO2)c1cnc2c(S)cccc2c1 | 7 | < 0.2 | 0.9 |
| O=C(NCc1ccccc1)c1cnc2c(S)cccc2c1 | 11 | 15 | 1.1 |
| O=C(NCCc1ccco1)c1ccnc2c(S)cccc12 |  | 2.9 |  |
| O=C(NCc1ccc(F)cc1)c1cnc2c(S)cccc2c1 | 18 | 0.85 |  |
| O=C(NCc1ccc(N2CCOCC2)cc1)c1cnc2c(S)cccc2c1 |  |  | 0.8 |
| O=C(NCc1ccco1)c1cnc2c(S)cccc2c1 |  | 0.9 | 0.9 |
| O=C(Nc1nccs1)c1cnc2c(S)cccc2c1 |  | 3.3 |  |
| O=C(NCCc1cccs1)c1cnc2c(S)cccc2c1 | 4 | 1.3 | 0.3 |
| O=C(NCc1cccnc1)c1cnc2c(S)cccc2c1 |  | 3.52 |  |
| O=C(NCc1cccs1)c1cnc2c(S)cccc2c1 | 16 | 1.3 | 0.8 |
| O=C(NCC1CCCO1)c1cnc2c(S)cccc2c1 (stereo unspecified) | 41.3 | 6.8 | 4.6 |
| NC(=O)c1cnc2c(S)cccc2c1 |  | 1.2 | 1 |
| O=C(NCc1ccccn1)c1cnc2c(S)cccc2c1 |  | 16.7 |  |
| COc1ccc(CNC(=O)c2cnc3c(S)cccc3c2)cc1 | 0.5 | 0.6 |  |
